Data as given in US20110166135A1, “AROMATIC NITROGEN-CONTAINING 6-MEMBERED RING COMPOUNDS AND THEIR USE” (priority 2008, published 2011).

target: T1, PDE10 (PDE10A) (Bos taurus, UniProt A0A3Q1MHJ4); assay: Measurement of PDE10 inhibitory activity (radiolabeled nucleotide PDE assay, Method-A or Method-B); assay type: biochemical; settings: Method-A: [3H]-cAMP substrate, 37° C., 30 minutes, enzyme from bovine corpus striatum
T1 construct: isolated and prepared from bovine corpus striatum; from tissue; host or cells: bovine corpus striatum
T1 sequence (A0A3Q1MHJ4 1-1068): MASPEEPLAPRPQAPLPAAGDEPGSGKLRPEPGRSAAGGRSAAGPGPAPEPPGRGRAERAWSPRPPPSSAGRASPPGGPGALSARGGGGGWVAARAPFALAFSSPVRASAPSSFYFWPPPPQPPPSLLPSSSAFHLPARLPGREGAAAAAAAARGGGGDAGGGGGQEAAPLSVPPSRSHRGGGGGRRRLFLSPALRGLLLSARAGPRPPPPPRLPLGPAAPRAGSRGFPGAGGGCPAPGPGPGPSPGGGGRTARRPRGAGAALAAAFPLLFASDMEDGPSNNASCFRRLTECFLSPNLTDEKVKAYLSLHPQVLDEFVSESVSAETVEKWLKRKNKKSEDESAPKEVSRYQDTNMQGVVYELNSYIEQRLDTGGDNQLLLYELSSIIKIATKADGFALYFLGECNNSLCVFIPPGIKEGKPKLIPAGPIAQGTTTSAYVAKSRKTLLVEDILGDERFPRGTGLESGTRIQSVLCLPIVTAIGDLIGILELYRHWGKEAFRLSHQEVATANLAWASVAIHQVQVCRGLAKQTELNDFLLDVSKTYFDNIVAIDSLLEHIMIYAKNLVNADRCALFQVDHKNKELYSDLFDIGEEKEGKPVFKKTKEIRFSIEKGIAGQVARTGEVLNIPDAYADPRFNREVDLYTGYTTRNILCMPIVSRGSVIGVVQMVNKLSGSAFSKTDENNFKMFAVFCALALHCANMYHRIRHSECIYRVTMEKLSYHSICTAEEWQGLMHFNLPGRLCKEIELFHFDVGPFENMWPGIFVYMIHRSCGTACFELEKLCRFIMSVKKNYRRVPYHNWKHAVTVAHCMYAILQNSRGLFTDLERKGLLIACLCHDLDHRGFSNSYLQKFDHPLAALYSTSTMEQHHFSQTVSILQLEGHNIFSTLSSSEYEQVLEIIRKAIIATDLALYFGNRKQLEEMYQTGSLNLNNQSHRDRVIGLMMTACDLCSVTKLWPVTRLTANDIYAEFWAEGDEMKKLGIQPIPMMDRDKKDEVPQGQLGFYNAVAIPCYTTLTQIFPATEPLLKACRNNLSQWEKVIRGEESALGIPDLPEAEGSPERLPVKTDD
Description: (1) The enzyme PDE10 (PDE10A) was isolated and prepared from bovine corpus striatum, according to the methods described in references Fujishige et al., Eur. J. Biochem., vol. 266, pp. 1118-1127, 1999. The enzyme solution obtained was used for a PDE assay.
The PDE assay was performed according to the method described in Kotera et al. (Kotera et al., Biochem. Pharmacol., vol. 60, pp. 1333-1341, 2000), by the radiolabeled nucleotide method.
Specifically, the measurements of the inhibitory activities were carried out in one of the following methods.
(Method-A) The enzymatic reaction was carried out in 500 μl of assay buffer [50 mM Tris-HCl, pH8.0, 5 mM MgCl2, 4 mM 2-mercaptoethanol, 0.33 mg/ml bovine serum albumin] containing as a substrate about 4.8 nM [^3H]-cAMP+0.25 μM unlabeled cAMP (available from Amersham Biosciences) or about 9.6 nM [^3H]-cAMP.
The reaction was carried out for 30 minutes while keeping the temperature at 37° C. It was stopped by boiling the reaction mixture for 1.5 minutes, and further added thereto was 100 μl of snake venom (Crotalus atrox snake venom 1 mg/ml) and the temperature was kept at 37° C. for 30 minutes. Then 500 μl of methanol was added, and the reaction mixture was applied to a Dowex column (1×8 200-400). Subsequently, scintillation cocktail was added to each aliquot of the eluant, and the radioactivity was measured in a scintillation counter. Thus, PDE activity taking cAMP as a substrate (an activity to hydrolyze cAMP) was measured.
In the measurements of the inhibitory activities of compounds, a test compound was added to the above-mentioned reaction mixture, in various concentrations, and PDE activity was measured in the presence or absence of the test compound. From the measurements, its PDE10 (PDE10A) inhibitory activity was determined.
(Method-B) The test compounds were dissolved in dimethyl sulfoxide (DMSO). 2 μL of the compound solution was added to 96 well plate, and the reaction mixture (20 μL of PDE enzyme solution in 50 mM Tris-HCl, pH 8.0, 40 μL of the assay buffer (50 mM Tris-HCl, pH 8.0, 2 mM MgCl2, 0.07% 2-mercaptoethanol, and 0.825 mg/mL bovine serum albumin), and 20 μL of 1 mg/mL snake venom) was added to the 96 well plate. The enzyme reaction was started by adding and mixing with substrate solution of 20 μL containing approximate 35 nM [5′,8-3H]cAMP in 50 mM Tris-HCl, pH 8.0. The final concentration of cAMP in the reaction mixtures was 7 nM. The reaction mixtures were incubated at room temperature for 90 min under dark conditions. After incubation, the reaction was stopped by adding 100 μL of methanol and resultant solutions were applied to filter plate containing Dowex (1×8 200-400) and centrifuged. 50 μL of the eluate together with wash eluate with additional 100 μL methanol was collected in another plate and the radioactivity was measured with 250 μL of scintillant.
(2) The compounds in the Examples below were tested for PDE inhibition using (Method-A) or (Method-B) described above.

SMILES	IC50 [nM]
COc1ccc(-c2cc(N3CCn4ccnc4C3)nc(/C=C/c3nc(N(C)C)c4ccccc4n3)n2)cc1OC [Example 1.008]	0.44
COc1ccc(-c2cc(N3CCN(C)CC3)nc(/C=C/c3nc(-n4ccnc4)c4ccccc4n3)n2)cc1OC [Example 1.010]	46
COc1ccc(-c2cc(N3CCN(C)C3=O)nc(/C=C/c3nc(N4CCCC4)c4ccccc4n3)n2)cc1OC [Example 1.013]	4.2
COc1ccc(-c2cc(N3CCCC3)nc(/C=C/c3nc(C)nc4c3CCN4C)n2)cc1OC [Example 1.055]	9.7
COc1ccc(-c2cc(N3CCCC3)nc(/C=C/c3nc(C)cnc3C)n2)cc1OC [Example 1.057]	29
Cc1cnc(/C=C/c2nc(-c3ccccn3)cc(N3CCCC3)n2)nc1N(C)C [Example 1.071]	31

Further lines, results first:

IC50 [nM]	SMILES
35	Cc1nc(OCc2cc(-c3ccco3)nc(N3CCCC3)n2)nc(N(C)C)c1C [Example 3.017]
38	COc1cc(OC)nc(OCc2cc(-c3ccc(OC)c(OC)c3)nc(N3CCCC3)n2)n1 [Example 3.029]
24	CN(C)c1nc(OCc2cc(N3CCCC3)nc(-c3cccnc3)n2)nc2ccccc12 [Example 3.034]

same assay, conditions: Method-B: 96 well plate, 7 nM cAMP, room temperature, 90 min, enzyme from bovine corpus striatum

SMILES	IC50 [nM]
CN(C)c1nc(/C=C/c2nc(C(=O)NN3CCCCC3)cc(N3CCCC3)n2)nc2ccccc12 [Example 1.159]	0.6
Cc1nc2ccccc2nc1/C=C/c1nc(C(=O)NC2CCOCC2)cc(N2CCCC2)n1 [Example 1.208]	0.62
Cc1nc2ccccc2nc1/C=C/c1nc(C(=O)N(C2CCOCC2)C2CC2)cc(N2CCCC2)n1 [Example 1.211]	0.76
Cc1nc2ccccc2nc1/C=C/c1nc(C(=O)NN2CCCCC2)cc(N2CCCC2)n1 [Example 1.220]	0.49
Cc1nc2ccccc2nc1/C=C/c1nc(C(=O)N(C)C2CCOCC2)cc(N2CCC(O)C2)n1 (stereo not shown) [Example 1.226]	20
CN(C(=O)c1cc(N2CCCC2)nc(/C=C/c2nc3ccccc3nc2C2CC2)n1)C1CCOCC1 [Example 1.253]	1.4
Cc1cc2ccccc2nc1/C=C/c1nc(C(=O)NC2CCOCC2)cc(N2CCCC2)n1 [Example 1.260]	2.5
Cc1nc2ccccc2nc1/C=C/c1nc(CNC2CCOCC2)cc(N2CCCC2)n1 [Example 1.268]	0.7

Second part, the compound after the results:

IC50 [nM]	SMILES
0.89	CN(C)c1nc(/C=C/c2nc(OC3CCCCC3)cc(N3CCCC3)n2)nc2ccccc12 [Example 2.035]
0.84	CC(C)=NOc1cc(N2CCCC2)nc(/C=C/c2nc(N(C)C)c3ccccc3n2)n1 [Example 2.039]
0.21	CN(C)c1nc(/C=C/c2nc(OC[C@@H]3CCC(=O)N3)cc(N3CCCC3)n2)nc2ccccc12 [Example 2.048]
0.64	Cc1nc(/C=C/c2nc(OC3CCOCC3)cc(N3CCCC3)n2)nc(N(C)C)c1C [Example 2.053]
0.86	Cc1nc2ccccc2nc1/C=C/c1cc(C(=O)NC2CCOCC2)nc(N2CCCC2)n1 [Example 4.001]
3.3	Cc1nc2ccccc2nc1CCc1nc(C(=O)NC[C@@H]2CCCO2)cc(N2CCCC2)n1 [Example 5.006]
2.3	CCOc1nc2ccccc2nc1CCc1nc(C(=O)NC2CCOCC2)cc(N2CCCC2)n1 [Example 5.012]

test system: not given; assay: not given; settings: not given

melting point [°C]	SMILES
199 to 201	COc1ccc(-c2cc(N3CCC(O)C3)nc(/C=C/c3nc(N(C)C)c4ccccc4n3)n2)cc1OC (stereo not shown) [Example 1.007, 1-(6-(3,4-dimethoxyphenyl)-2-{(E)-2-[4-(dimethylamino)quinazolin-2-yl]vinyl}pyrimidin-4-yl)pyrrolidin-3-ol]
103 to 108	COc1ccc(-c2cc(N3CCn4ccnc4C3)nc(/C=C/c3nc(N(C)C)c4ccccc4n3)n2)cc1OC [Example 1.008]
177 to 180	COc1ccc(-c2cc(N3CCN(C)CC3)nc(/C=C/c3nc(-n4ccnc4)c4ccccc4n3)n2)cc1OC [Example 1.010]
126 to 131	COc1ccc(-c2cc(N3CCC(NC(=O)CN(C)C)C3)nc(/C=C/c3nc(N(C)C)c4ccccc4n3)n2)cc1OC (stereo not shown) [Example 1.104, N^1-[1-(6-(3,4-dimethoxyphenyl)-2-{(E)-2-[4-(dimethylamino)quinazolin-2-yl]vinyl}pyrimidin-4-yl)pyrrolidin-3-yl]-N^2,N^2-dimethylglycine amide]
